In ChEMBL document CHEMBL3045887, “Synthesis and anticonvulsant activity of some N-(benzoyl)glycinanilide derivatives” (Med Chem Res, 2013):
Activity calls are given as the source filed them. The calls are words filed in the database; no cut-off is given here.

Columns and labels:
Mus musculus [1] = test: Anticonvulsant activity in Swiss albino Mus musculus (mouse) assessed as protection against ScMet-induced myoclonic-clonic seizures at 30 mg/kg, ip measured at 4 hr; type: functional, organism-based; parameters: dose 30 mg/kg
Mus musculus [2] = test: Anticonvulsant activity in Swiss albino Mus musculus (mouse) assessed as protection against maximal electric shock-induced tonic-clonic seizures at 30 mg/kg, ip measured at 4 hr; type: functional, organism-based; parameters: dose 30 mg/kg
Mus musculus [3] = test: Anticonvulsant activity in Swiss albino Mus musculus (mouse) assessed as protection against maximal electric shock-induced tonic-clonic seizures at 30 mg/kg, ip measured at 0.5 hr; type: functional, organism-based; parameters: dose 30 mg/kg
Mus musculus [4] = test: Anticonvulsant activity in Swiss albino Mus musculus (mouse) assessed as protection against maximal electric shock-induced tonic-clonic seizures at 300 mg/kg, ip measured at 4 hr; type: functional, organism-based; parameters: dose 300 mg/kg
Mus musculus [5] = test: Anticonvulsant activity in Swiss albino Mus musculus (mouse) assessed as protection against ScMet-induced myoclonic-clonic seizures at 300 mg/kg, ip measured at 0.5 hr; type: functional, organism-based; parameters: dose 300 mg/kg
Mus musculus [6] = test: Anticonvulsant activity in Swiss albino Mus musculus (mouse) assessed as protection against ScMet-induced myoclonic-clonic seizures at 300 mg/kg, ip measured at 4 hr; type: functional, organism-based; parameters: dose 300 mg/kg
Mus musculus [7] = test: Anticonvulsant activity in Swiss albino Mus musculus (mouse) assessed as protection against maximal electric shock-induced tonic-clonic seizures at 100 mg/kg, ip measured at 4 hr; type: functional, organism-based; parameters: dose 100 mg/kg
Mus musculus [8] = test: Anticonvulsant activity in Swiss albino Mus musculus (mouse) assessed as protection against ScMet-induced myoclonic-clonic seizures at 100 mg/kg, ip measured at 0.5 hr; type: functional, organism-based; parameters: dose 100 mg/kg
Mus musculus [9] = test: Neurotoxicity against Swiss albino Mus musculus (mouse) at 100 mg/kg, ip measured at 0.5 hr; type: toxicity, organism-based; parameters: dose 100 mg/kg, route intraperitoneal; conditions: in vivo
Mus musculus [10] = test: Neurotoxicity against Swiss albino Mus musculus (mouse) at 30 mg/kg, ip measured at 0.5 hr; type: toxicity, organism-based; parameters: dose 30 mg/kg, route intraperitoneal; conditions: in vivo
Mus musculus [11] = test: Anticonvulsant activity in Swiss albino Mus musculus (mouse) assessed as protection against ScMet-induced myoclonic-clonic seizures at 100 mg/kg, ip measured at 4 hr; type: functional, organism-based; parameters: dose 100 mg/kg
Mus musculus [12] = test: Neurotoxicity against Swiss albino Mus musculus (mouse) at 100 mg/kg, ip measured at 4 hr; type: toxicity, organism-based; parameters: dose 100 mg/kg, route intraperitoneal; conditions: in vivo
Mus musculus [13] = test: Neurotoxicity against Swiss albino Mus musculus (mouse) at 300 mg/kg, ip measured at 0.5 hr; type: toxicity, organism-based; parameters: dose 300 mg/kg, route intraperitoneal; conditions: in vivo
Mus musculus [14] = test: Anticonvulsant activity in Swiss albino Mus musculus (mouse) assessed as protection against maximal electric shock-induced tonic-clonic seizures at 100 mg/kg, ip measured at 0.5 hr; type: functional, organism-based; parameters: dose 100 mg/kg
Mus musculus [15] = test: Neurotoxicity against Swiss albino Mus musculus (mouse) at 30 mg/kg, ip measured at 4 hr; type: toxicity, organism-based; parameters: dose 30 mg/kg, route intraperitoneal; conditions: in vivo
Mus musculus [16] = test: Anticonvulsant activity in Swiss albino Mus musculus (mouse) assessed as protection against maximal electric shock-induced tonic-clonic seizures at 300 mg/kg, ip measured at 0.5 hr; type: functional, organism-based; parameters: dose 300 mg/kg
Mus musculus [17] = test: Anticonvulsant activity in Swiss albino Mus musculus (mouse) assessed as protection against ScMet-induced myoclonic-clonic seizures at 30 mg/kg, ip measured at 0.5 hr; type: functional, organism-based; parameters: dose 30 mg/kg
Mus musculus [18] = test: Neurotoxicity against Swiss albino Mus musculus (mouse) at 300 mg/kg, ip measured at 4 hr; type: toxicity, organism-based; parameters: dose 300 mg/kg, route intraperitoneal; conditions: in vivo

Compound	Activity (Mus musculus [1])	Activity (Mus musculus [2])	Activity (Mus musculus [3])	Activity (Mus musculus [4])	Activity (Mus musculus [5])	Activity (Mus musculus [6])	Activity (Mus musculus [7])	Activity (Mus musculus [8])	Activity (Mus musculus [9])	Activity (Mus musculus [10])	Activity (Mus musculus [11])	Activity (Mus musculus [12])	Activity (Mus musculus [13])	Activity (Mus musculus [14])	Activity (Mus musculus [15])	Activity (Mus musculus [16])	Activity (Mus musculus [17])	Activity (Mus musculus [18])
COc1ccccc1NC(=O)CNC(=O)c1ccccc1	inactive	inactive	inactive	inactive	inactive	inactive	inactive	inactive	Non-toxic	Non-toxic	inactive	Non-toxic	Non-toxic	inactive	Non-toxic	inactive	inactive	Non-toxic
Cc1ccccc1NC(=O)CNC(=O)c1ccccc1	inactive	inactive	inactive	inactive	inactive	inactive	inactive	inactive	Non-toxic	Non-toxic	inactive	Non-toxic	Non-toxic	inactive	Non-toxic	Active	inactive	Non-toxic
O=C(CNC(=O)c1ccccc1Cl)Nc1ccccc1	inactive	inactive	inactive	Active	inactive	inactive	inactive	inactive	Non-toxic	Non-toxic	inactive	Non-toxic	Non-toxic	inactive	Non-toxic	inactive	inactive	Non-toxic
Cc1ccc(C(=O)NCC(=O)Nc2ccccc2)cc1	inactive	inactive	inactive	inactive	Active	inactive	inactive	inactive	Non-toxic	Non-toxic	inactive	Non-toxic	Non-toxic	inactive	Non-toxic	inactive	inactive	Non-toxic
COc1ccc(NC(=O)CNC(=O)c2ccccc2)cc1	inactive	inactive	inactive	Active	inactive	inactive	inactive	inactive	Non-toxic	Non-toxic	inactive	Non-toxic	Non-toxic	Active	Non-toxic	Active	inactive	Non-toxic
